The source of these data is ChEMBL document CHEMBL3044768, “Chemistry, toxicity and antifeedant activity of the resin of Flourensia thurifera” (1997).

Converted amounts (≈) assume the structure as drawn.

For the first test, the system named is Spodoptera littoralis. Nature of the test: Antifeedant activity against fifth instar larvae of Spodoptera littoralis fed on compound-treated lettuce leaf at 10 ug/cm'2 by leaf-disk method. In kind it is functional. Also on record: unit not given here.
For the molecule `COc1cc(O)c2c(=O)c(O)c(-c3ccc(O)c(O)c3)oc2c1` [RHAMNETIN], the FR50 is recorded as 71.

`C=C(C)c1cc2cc(C(C)=O)c(O)cc2o1` [EUPARIN] showed an FR50 of 0.42.

The molecule `CC(=O)c1cc2c(cc1O)OC(C)(C)C=C2` [DEMETHYLENCECALIN] gave an FR50 of 0.4.

With `COc1cc2ccc(=O)oc2c(O)c1OCC=C(C)C` [CAPENSIN], the FR50 is listed as 1.04.

Molecule `CC(C)=CCc1cc(/C=C/C(=O)O)ccc1O` [DRUPANIN] gave an FR50 of 78.

Take `COc1cc2ccc(=O)oc2cc1OCC=C(C)C` [PRENYLETIN 6-METHYL ETHER]: the FR50 amounted to 0.43.

As for `COc1cc2c(cc1C(C)=O)C=CC(C)(C)O2` [ENCECALIN], the FR50 stood at 0.08.

`CC(C)=CCOc1cc2oc(=O)ccc2cc1O` [PRENYLETIN] gave an FR50 of 1.06.

The subject of a further test is Artemia salina. Nature of the test: Toxicity against Artemia salina (brine shrimp) after 24 hr. It is filed as functional.
Turning to `COC(=O)/C=C/c1ccc(OC(C)=O)c(C/C=C(\C)COC(C)=O)c1`, the LC50 stood at 39.8 µg/mL (≈ 115 µM).

Regarding `C=C(C)c1cc2cc(C(C)=O)c(O)cc2o1` [EUPARIN], the LC50 was determined as 58.9 µg/mL (≈ 272 µM).

Take `CC(=O)c1cc2c(cc1O)OC(C)(C)C=C2` [DEMETHYLENCECALIN]: the LC50 came out at 17.6 µg/mL (≈ 80.6 µM).

In the case of `COc1cc2ccc(=O)oc2c(O)c1OCC=C(C)C` [CAPENSIN], the LC50 amounted to 52.5 µg/mL (≈ 190 µM).

`CC(C)=CCc1cc(/C=C/C(=O)O)ccc1O` [DRUPANIN] yielded an LC50 of 104 µg/mL (≈ 449 µM).

In the case of `COc1cc2ccc(=O)oc2cc1OCC=C(C)C` [PRENYLETIN 6-METHYL ETHER], the LC50 was determined as 17.6 µg/mL (≈ 67.6 µM).

Regarding `COc1cc2c(cc1C(C)=O)C=CC(C)(C)O2` [ENCECALIN], the 50% lethal concentration (LC50) came to 0.9 µg/mL (≈ 3.87 µM).

Molecule `CC(C)=CCOc1cc2oc(=O)ccc2cc1O` [PRENYLETIN] displayed an LC50 of 3.8 µg/mL (≈ 15.4 µM).
